This experiment has as its target TBK1 (Homo sapiens (Human), UniProt Q9UHD2). Put plainly: TBK1 low ATP kinase assay (in vitro assay 1). The class given is biochemical. Conditions: in vitro assay 1, read-out: TBK1 low ATP kinase assay IC50.
Sequence of TBK1 (Q9UHD2 whole entry): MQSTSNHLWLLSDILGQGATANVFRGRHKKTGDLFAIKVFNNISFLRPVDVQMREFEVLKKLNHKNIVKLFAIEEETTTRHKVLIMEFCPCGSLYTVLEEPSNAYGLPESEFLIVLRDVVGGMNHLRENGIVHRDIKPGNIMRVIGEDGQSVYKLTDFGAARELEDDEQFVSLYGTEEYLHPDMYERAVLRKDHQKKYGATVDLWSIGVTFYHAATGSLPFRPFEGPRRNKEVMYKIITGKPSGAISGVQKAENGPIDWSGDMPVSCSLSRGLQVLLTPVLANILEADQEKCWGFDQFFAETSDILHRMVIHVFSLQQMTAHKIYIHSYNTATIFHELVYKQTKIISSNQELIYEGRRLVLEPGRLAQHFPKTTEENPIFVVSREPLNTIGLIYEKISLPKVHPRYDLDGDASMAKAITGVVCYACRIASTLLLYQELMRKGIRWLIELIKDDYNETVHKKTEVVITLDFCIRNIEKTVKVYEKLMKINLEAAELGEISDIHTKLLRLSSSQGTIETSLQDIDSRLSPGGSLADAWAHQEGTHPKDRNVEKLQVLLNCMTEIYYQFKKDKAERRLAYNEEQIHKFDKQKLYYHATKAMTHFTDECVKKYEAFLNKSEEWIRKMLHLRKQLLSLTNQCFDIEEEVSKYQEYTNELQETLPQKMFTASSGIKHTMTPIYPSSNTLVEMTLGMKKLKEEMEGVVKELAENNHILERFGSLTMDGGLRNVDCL
In general, IC50 refers to the concentration at which inhibition is half-maximal. `COc1cncnc1-c1ccc2nc(Nc3cc(C(C)N4CCN(C(=O)C5CC5)CC4)ccn3)[nH]c2c1` (single isomer, unassigned) [Example 35.03.03.B, cyclopropyl{4-[(1S or 1R)-1-(2-{[6-(5-methoxypyrimidin-4-yl)-1H-benzimidazol-2-yl]amino}pyridin-4-yl)ethyl]piperazin-1-yl}methanone]: the IC50 worked out at 31.7 nM.

Take `COc1cc(-c2ccc3nc(Nc4cc(CN5CCN(C(=O)C6CCC6)CC5)ccn4)[nH]c3c2)c(F)cn1` [Example 03.03, cyclobutyl{4-[(2-{[6-(5-fluoro-2-methoxypyridin-4-yl)-1H-benzimidazol-2-yl]amino}pyridin-4-yl)methyl]piperazin-1-yl}methanone]: the IC50 is 279 nM.

For the compound `COc1c(NCC2CC2)ncnc1-c1ccc2nc(Nc3cc(CN4CCN(C(=O)CC(F)(F)F)CC4)ccn3)[nH]c2c1` [Example 109.01.02, 1-[4-({2-[(6-{6-[(cyclopropylmethyl)amino]-5-methoxypyrimidin-4-yl}-1H-benzimidazol-2-yl)amino]pyridin-4-yl}methyl)piperazin-1-yl]-3,3,3-trifluoropropan-1-one], the IC50 was determined as 5.4 nM.

With `COCc1cc(-c2ccc3nc(Nc4cc(C(C)N5CCN(C(=O)OC(C)(C)C)CC5)ccn4)[nH]c3c2)ncn1` (single isomer, unassigned) [Example 84.01, tert-butyl 4-{(1R or 1S)-1-[2-({6-[6-(methoxymethyl)pyrimidin-4-yl]-1H-benzimidazol-2-yl}amino)pyridin-4-yl]ethyl}piperazine-1-carboxylate], the IC50 amounted to 1.1 nM.

`O=C(CC(F)(F)F)N1CCN(Cc2ccnc(Nc3nc4ccc(-c5ccsc5Cl)cc4[nH]3)c2)CC1` [Example 175.02, 1-{4-[(2-{[6-(2-chlorothiophen-3-yl)-1H-benzimidazol-2-yl]amino}pyridin-4-yl)methyl]piperazin-1-yl}-3,3,3-trifluoropropan-1-one]: the IC50 worked out at 353 nM.

With `CC(c1ccnc(Nc2nc3ccc(-c4cc(N5CC(C(F)(F)F)C5)ncn4)cc3[nH]2)c1)N1CCN(C(=O)OC(C)(C)C)CC1` (single isomer, unassigned) [Example 164.01, tert-butyl 4-[(1R or 1S)-1-{2-[(6-{6-[3-(trifluoromethyl)azetidin-1-yl]pyrimidin-4-yl}-1H-benzimidazol-2-yl)amino]pyridin-4-yl}ethyl]piperazine-1-carboxylate], the IC50 turned out to be 5.48 nM.

`O=C(CC(F)(F)F)N1CCN(Cc2ccnc(Nc3nc4ccc(-c5cnn(CC(F)(F)F)c5)cc4[nH]3)c2)CC1` [Example 58.01.02, 3,3,3-trifluoro-1-(4-{[2-({6-[1-(2,2,2-trifluoroethyl)-1H-pyrazol-4-yl]-1H-benzimidazol-2-yl}amino)pyridin-4-yl]methyl}piperazin-1-yl)propan-1-one]: the IC50 is 9.81 nM.

On to `CC(c1ccnc(Nc2nc3ccc(-c4ccnn4C(C)C)cc3[nH]2)c1)N1CCN(C(=O)C2CC2)CC1` (single isomer, unassigned) [Example 72.03, cyclopropyl(4-{(1R or 1S)-1-[2-({6-[1-(propan-2-yl)-1H-pyrazol-5-yl]-1H-benzimidazol-2-yl}amino)pyridin-4-yl]ethyl}piperazin-1-yl)methanone], for which the IC50 came out at 100 nM.

Consider `CC(C)(C)OC(=O)N1CCN(Cc2ccnc(Nc3nc4ccc(-c5c(F)cncc5Cl)cc4[nH]3)c2)CC1` [Example 132.01, tert-butyl 4-[(2-{[6-(3-chloro-5-fluoropyridin-4-yl)-1H-benzimidazol-2-yl]amino}pyridin-4-yl)methyl]piperazine-1-carboxylate], for which the IC50 was 180 nM.

In the case of `COc1nccc(-c2ccc3nc(Nc4cc(CN5CCN(C(=O)C6CC6)CC5)ccn4)[nH]c3c2)n1` [Example 25.01.05, cyclopropyl{4-[(2-{[6-(2-methoxypyrimidin-4-yl)-1H-benzimidazol-2-yl]amino}pyridin-4-yl)methyl]piperazin-1-yl}methanone], the IC50 turned out to be 64.5 nM.

`CCOc1cnc(C)cc1-c1ccc2nc(Nc3cc(CN4CCN(C(=O)C5CCC5)CC4)ccn3)[nH]c2c1` [Example 09.04, cyclobutyl{4-[(2-{[6-(5-ethoxy-2-methylpyridin-4-yl)-1H-benzimidazol-2-yl]amino}pyridin-4-yl)methyl]piperazin-1-yl}methanone]: the IC50 was determined as 352 nM.

As to `Cc1noc(-c2ccc3nc(Nc4cc(CN5CCN(C(=O)CC(F)(F)F)C[C@H]5C)ccn4)[nH]c3c2)n1` [Example 16.03.02, 3,3,3-trifluoro-1-{(3R)-3-methyl-4-[(2-{[6-(3-methyl-1,2,4-oxadiazol-5-yl)-1H-benzimidazol-2-yl]amino}pyridin-4-yl)methyl]piperazin-1-yl}propan-1-one], the IC50 was found to be 63.1 nM.

Regarding `COc1c(NC2CCC2)ncnc1-c1ccc2nc(Nc3cc(C(C)N4CCN(C(=O)C5CC5)CC4)ccn3)[nH]c2c1` (single isomer, unassigned) [Example 114.03, (4-{(1R or 1S)-1-[2-({6-[6-(cyclobutylamino)-5-methoxypyrimidin-4-yl]-1H-benzimidazol-2-yl}amino)pyridin-4-yl]ethyl}piperazin-1-yl)(cyclopropyl)methanone], the IC50 was 8.07 nM.

Consider `CCOc1cc(-c2ccc3nc(Nc4cc(CN5CCN(C(=O)C6CC6)CC5)ccn4)[nH]c3c2)ncn1` [Example 161.03, cyclopropyl{4-[(2-{[6-(6-ethoxypyrimidin-4-yl)-1H-benzimidazol-2-yl]amino}pyridin-4-yl)methyl]piperazin-1-yl}methanone], for which the IC50 is 6.7 nM.

As for `Cc1cc(-c2ccc3nc(Nc4cc(C(C)N5CCN(C(=O)CC6CC6)CC5)ccn4)[nH]c3c2)ncn1` (racemic) [Example 30.02.04, (rac)-2-cyclopropyl-1-{4-[1-(2-{[6-(6-methylpyrimidin-4-yl)-1H-benzimidazol-2-yl]amino}pyridin-4-yl)ethyl]piperazin-1-yl}ethanone], the IC50 was determined as 9.35 nM.

With `CC(C)(C)OC(=O)N1CCN(Cc2ccnc(Nc3nc4ccc(-c5cc(NC6CC6)ncn5)cc4[nH]3)c2)CC1` [Example 82.01, tert-butyl 4-{[2-({6-[6-(cyclopropylamino)pyrimidin-4-yl]-1H-benzimidazol-2-yl}amino)pyridin-4-yl]methyl}piperazine-1-carboxylate], the IC50 amounted to 3.6 nM.

For the compound `Cc1noc(-c2ccc3nc(Nc4cc(CN5CCN(C(=O)C6CCC6)C[C@H]5C)ccn4)[nH]c3c2)n1` [Example 16.03.05, cyclobutyl{(3R)-3-methyl-4-[(2-{[6-(3-methyl-1,2,4-oxadiazol-5-yl)-1H-benzimidazol-2-yl]amino}pyridin-4-yl)methyl]piperazin-1-yl}methanone], the IC50 stood at 84.7 nM.

For `COc1cnc(OCC2CC2)nc1-c1ccc2nc(Nc3cc(CN4CCN(C(=O)C5CC5)CC4)ccn3)[nH]c2c1` [Example 64.01.02, cyclopropyl(4-{[2-({6-[2-(cyclopropylmethoxy)-5-methoxypyrimidin-4-yl]-1H-benzimidazol-2-yl}amino)pyridin-4-yl]methyl}piperazin-1-yl)methanone], the IC50 is 33.7 nM.

As to `COc1c(NCC2CC2)ncnc1-c1ccc2nc(Nc3cc(C(C)N4CCN(C(=O)CC(F)(F)F)CC4)ccn3)[nH]c2c1` (single isomer, unassigned) [Example 109.02.03, 1-{4-[(1R or 1S)-1-{2-[(6-{6-[(cyclopropylmethyl)amino]-5-methoxypyrimidin-4-yl}-1H-benzimidazol-2-yl)amino]pyridin-4-yl}ethyl]piperazin-1-yl}-3,3,3-trifluoropropan-1-one], the IC50 came out at 2.4 nM.

With `COc1c(-c2ccc3nc(Nc4cc(C(C)N5CCN(C(=O)CC(F)(F)F)CC5)ccn4)[nH]c3c2)ncnc1N1CC(F)(F)C1` (single isomer, unassigned) [Example 113.02, 1-(4-{(1R or 1S)-1-[2-({6-[6-(3,3-difluoroazetidin-1-yl)-5-methoxypyrimidin-4-yl]-1H-benzimidazol-2-yl}amino)pyridin-4-yl]ethyl}piperazin-1-yl)-3,3,3-trifluoropropan-1-one], the IC50 came to 1.6 nM.

Consider `COc1cnc(C)cc1-c1ccc2nc(Nc3cc(CN4CCN(C(=O)C5CC5)CC4)ccn3)[nH]c2c1` [Example 07.01, cyclopropyl{4-[(2-{[6-(5-methoxy-2-methylpyridin-4-yl)-1H-benzimidazol-2-yl]amino}pyridin-4-yl)methyl]piperazin-1-yl}methanone], for which the IC50 worked out at 224 nM.

Take `CC(c1ccnc(Nc2nc3ccc(-c4cnn(CC5CC5(F)F)c4)cc3[nH]2)c1)N1CCN(C(=O)C2CC2)CC1` (single isomer, unassigned) [Example 55.03.02, cyclopropyl{4-[(1R or 1S)-1-(2-{[6-(1-{[(1R or 1S)-2,2-difluorocyclopropyl]methyl}-1H-pyrazol-4-yl)-1H-benzimidazol-2-yl]amino}pyridin-4-yl)ethyl]piperazin-1-yl}methanone]: the IC50 was 0.66 nM.

Take `COc1c(C)ncnc1-c1ccc2nc(Nc3cc(CN4CCN(C(=O)C5CC5)CC4)ccn3)[nH]c2c1` [Example 61.01.02, cyclopropyl{4-[(2-{[6-(5-methoxy-6-methylpyrimidin-4-yl)-1H-benzimidazol-2-yl]amino}pyridin-4-yl)methyl]piperazin-1-yl}methanone]: the IC50 is 23 nM.

With `COCc1cc(-c2ccc3nc(Nc4cc(CN5CCN(C(=O)CC(F)(F)F)CC5)ccn4)[nH]c3c2)ncn1` [Example 79.01, 3,3,3-trifluoro-1-(4-{[2-({6-[6-(methoxymethyl)pyrimidin-4-yl]-1H-benzimidazol-2-yl}amino)pyridin-4-yl]methyl}piperazin-1-yl)propan-1-one], the IC50 is 8.3 nM.

Regarding `CCC(=O)N1CCN(Cc2ccnc(Nc3nc4ccc(-c5nc(C)no5)cc4[nH]3)c2)CC1` [Example 101.28, 1-{4-[(2-{[6-(3-methyl-1,2,4-oxadiazol-5-yl)-1H-benzimidazol-2-yl]amino}pyridin-4-yl)methyl]piperazin-1-yl}propan-1-one], the IC50 turned out to be 210 nM.

`Cc1noc(-c2ccc3nc(Nc4cc(CN5CCN(c6ccc(C(F)(F)F)cn6)CC5)ccn4)[nH]c3c2)n1` [Example 101.08, 6-(3-methyl-1,2,4-oxadiazol-5-yl)-N-[4-({4-[5-(trifluoromethyl)pyridin-2-yl]piperazin-1-yl}methyl)pyridin-2-yl]-1H-benzimidazol-2-amine]: the IC50 was greater than 20000 nM.
